Reference: publication PMC8227285, “Functional Characterization of the Dopaminergic Psychostimulant Sydnocarb as an Allosteric Modulator of the Human Dopamine Transporter” (Biomedicines, 2021)
Where two headings read alike, the source gives them in different places.

Tests used:
DAT-XC/W84C mutant = target: T1, DAT-XC/W84C mutant (Homo sapiens, UniProt Q01959, C306A/W84C); experiment: Substituted cysteine scanning (SCAM) MTSEA-biotin biotinylation in HEK-293 cells; format: cell-based
T1 construct: expressed in transfected cells; host or cells: HEK-293
T1 sequence (Q01959 1-620 W84C/C306A): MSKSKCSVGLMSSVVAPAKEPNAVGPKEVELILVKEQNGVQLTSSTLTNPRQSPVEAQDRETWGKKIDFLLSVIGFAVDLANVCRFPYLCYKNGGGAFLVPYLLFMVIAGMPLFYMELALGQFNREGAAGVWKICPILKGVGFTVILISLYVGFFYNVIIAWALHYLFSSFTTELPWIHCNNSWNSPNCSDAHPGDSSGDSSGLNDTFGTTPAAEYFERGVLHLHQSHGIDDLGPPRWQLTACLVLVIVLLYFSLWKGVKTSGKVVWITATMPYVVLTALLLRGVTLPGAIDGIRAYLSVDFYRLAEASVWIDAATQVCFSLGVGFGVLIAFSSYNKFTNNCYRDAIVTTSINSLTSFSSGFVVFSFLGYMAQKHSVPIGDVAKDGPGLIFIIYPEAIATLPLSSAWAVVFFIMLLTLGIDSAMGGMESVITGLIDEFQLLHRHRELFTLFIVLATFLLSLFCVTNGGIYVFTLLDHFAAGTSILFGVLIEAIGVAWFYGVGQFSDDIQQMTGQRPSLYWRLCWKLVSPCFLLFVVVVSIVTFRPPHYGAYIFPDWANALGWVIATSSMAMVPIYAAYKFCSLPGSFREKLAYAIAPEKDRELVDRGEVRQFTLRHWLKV
Method: Briefly, HEK-293 cells were transiently transfected and cultured to confluency in a 6-well plate. The cells were washed with ice-cold PBS-CM (pH 7.4) twice and incubated at 4 °C with vehicle or sydnocarb (0.5 or 2 μM) for 10 min, followed by the addition of MTSEA-biotin (125 μM, final concentration). After 10-min incubation at 4 °C, the biotinylation was quenched by aspirating the liquid and washing the cells with 1-mM DTT in PBS-CM, followed by a final wash with PBS-CM only. The cells were lysed in 600 μL of TNE lysis buffer (pH 7.4) containing protease inhibitors (100×) for 40 min at 4 °C. The cells were collected and centrifuged at 12,000× g for 10 min at 4 °C. The supernatant was collected, of which 30 μL was mixed with DTT (0.5 M, 5 μL) and LDS Nu-page (15 μL) for the total lysate sample, and saved at −20 °C. Four hundred and fifty microliters of the supernatant were incubated overnight at 4 °C with 50 μL of 50% slurry of high-capacity neutravidin agarose resin. The beads containing “biotinylated” proteins were washed with ice-cold TNE lysis three times, followed by a final wash with PBS-CM, and then mixed with LDL Nu-page (15 μL), DTT (0.5 M, 5 μL), and water (30 μL). […] Densities of he DAT bands were analyzed with an Odyssey imaging system and associated ImageStudio software (LI-COR, Lincoln, NE, USA).

Y335A-DAT [1] = target: T2, Y335A-DAT (Homo sapiens, UniProt Q01959, Y335A); details: cited from earlier work
T2 construct: expressed in transfected cells; host or cells: COS-7

Y156F-DAT [2] = target: T3, Y156F-DAT (Homo sapiens, UniProt Q01959, Y156F); details: cited from earlier work
T3 construct: expressed in transfected cells; host or cells: COS-7

hNET = target: T4, hNET (Homo sapiens, UniProt P23975); experiment: Radioactive neurotransmitter transport inhibition assay in transiently transfected COS-7 cells; format: cell-based; details: hNET transiently transfected COS-7 cells; mean ± SEM, three independent experiments (Figure 1A)
T4 construct: expressed in transfected cells; host or cells: COS-7
Method: (§1) Transiently transfected COS-7 cells (expressing hDAT, hNET, or hSERT) were plated in 96-well plates. Uptake experiments were performed 2 days later. The media was removed, and the cells were washed with PBS-CM. Following washing, the cells were incubated for 10 min with various concentrations of sydnocarb, and the uptake was initiated by adding [^3H]-dopamine to a final concentration of 25 nM. The uptake was allowed to continue for 10 min at room temperature and was terminated by washing twice with PBS-CM. The cells were solubilized in a scintillation cocktail and counted on a microplate scintillation and luminescence counter (PerkinElmer, Waltham, MA, USA). Data were fitted to a Hill equation by a nonlinear regression analysis to obtain the IC50 values.

hSERT = target: T5, hSERT (Homo sapiens, UniProt P31645); experiment: as above; format: cell-based; details: hSERT transiently transfected COS-7 cells, mean ± SEM, three independent experiments (Figure 1A)
T5 construct: expressed in transfected cells; host or cells: COS-7
Method: as §1

wild-type DAT = target: T6, wild-type DAT (Homo sapiens, UniProt Q01959); experiment: [3H]-DA uptake kinetic assay in COS-7 cells (Michaelis-Menten); format: cell-based; details: vehicle 634.8 ± 84.62, four independent experiments
T6 construct: expressed in transfected cells; host or cells: COS-7
Method: Transport assays were performed as described previously. Briefly, COS-7 cells were transfected and plated in 96-well plates. Uptake experiments were performed 2 days after transfection. The media was removed, and the cells were washed with PBS (137-mM NaCl, 2.7-mM KCl, 4.3-mM Na2HPO4, and 1.4-mM KH2PO4, pH 7.4) containing 0.1-mM CaCl2, 1-mM MgCl2, […], and […] (PBSCM). Following washing, a constant concentration of radiolabeled substrate (50-nM [^3H]-DA) and increasing concentrations of unlabeled substrate (0.05–100-μM DA) were added, and the uptake was allowed to continue for 10 min at room temperature. The uptake was terminated by washing twice with PBS-CM. The cells were solubilized in scintillation cocktail and counted on a microplate scintillation and luminescence counter (PerkinElmer, Waltham, MA, USA). Background was obtained from non-transfected cells and subtracted. Data were fitted to a Michaelis−Menten equation using nonlinear regression to obtain Km and Vmax.

hDAT = target: T7, hDAT (Homo sapiens, UniProt Q01959); experiment: [3H]-dopamine transport inhibition assay in transiently transfected COS-7 cells; format: cell-based; details: for IC50: mean ± SEM
T7 construct: expressed in transfected cells; host or cells: COS-7
Method: as §1

Y335A-DAT [3] = target: T2, Y335A-DAT; experiment: DA uptake inhibition assay in COS-7 cells expressing DAT mutant; format: cell-based
Method: as §1

Y156F-DAT [4] = target: T3, Y156F-DAT; experiment: as above; format: cell-based
Method: as §1

T2 sequence (Q01959 whole entry Y335A): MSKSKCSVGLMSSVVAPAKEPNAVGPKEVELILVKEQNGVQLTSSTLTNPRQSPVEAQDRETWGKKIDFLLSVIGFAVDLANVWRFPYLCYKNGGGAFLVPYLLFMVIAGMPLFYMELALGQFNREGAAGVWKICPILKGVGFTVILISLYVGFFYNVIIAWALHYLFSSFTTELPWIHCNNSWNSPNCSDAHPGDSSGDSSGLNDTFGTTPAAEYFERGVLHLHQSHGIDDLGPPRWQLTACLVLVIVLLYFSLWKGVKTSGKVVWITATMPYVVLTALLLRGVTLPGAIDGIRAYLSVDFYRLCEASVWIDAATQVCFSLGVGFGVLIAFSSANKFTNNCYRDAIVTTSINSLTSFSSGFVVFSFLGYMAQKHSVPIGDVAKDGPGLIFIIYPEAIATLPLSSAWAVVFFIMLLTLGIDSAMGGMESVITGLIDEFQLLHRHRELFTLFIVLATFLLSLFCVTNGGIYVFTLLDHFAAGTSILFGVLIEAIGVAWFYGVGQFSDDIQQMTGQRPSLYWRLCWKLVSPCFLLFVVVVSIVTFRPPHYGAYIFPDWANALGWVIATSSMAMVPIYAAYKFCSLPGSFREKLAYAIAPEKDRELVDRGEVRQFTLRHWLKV
T3 sequence (Q01959 whole entry Y156F): as the sequence (Q01959 whole entry Y335A) above, with Y156F, A335Y counted along it
T7 sequence (Q01959 whole entry): as the sequence (Q01959 whole entry Y335A) above, with A335Y counted along it
T6 sequence (Q01959 whole entry): as the sequence (Q01959 whole entry Y335A) above, with A335Y counted along it
T5 sequence (P31645 whole entry): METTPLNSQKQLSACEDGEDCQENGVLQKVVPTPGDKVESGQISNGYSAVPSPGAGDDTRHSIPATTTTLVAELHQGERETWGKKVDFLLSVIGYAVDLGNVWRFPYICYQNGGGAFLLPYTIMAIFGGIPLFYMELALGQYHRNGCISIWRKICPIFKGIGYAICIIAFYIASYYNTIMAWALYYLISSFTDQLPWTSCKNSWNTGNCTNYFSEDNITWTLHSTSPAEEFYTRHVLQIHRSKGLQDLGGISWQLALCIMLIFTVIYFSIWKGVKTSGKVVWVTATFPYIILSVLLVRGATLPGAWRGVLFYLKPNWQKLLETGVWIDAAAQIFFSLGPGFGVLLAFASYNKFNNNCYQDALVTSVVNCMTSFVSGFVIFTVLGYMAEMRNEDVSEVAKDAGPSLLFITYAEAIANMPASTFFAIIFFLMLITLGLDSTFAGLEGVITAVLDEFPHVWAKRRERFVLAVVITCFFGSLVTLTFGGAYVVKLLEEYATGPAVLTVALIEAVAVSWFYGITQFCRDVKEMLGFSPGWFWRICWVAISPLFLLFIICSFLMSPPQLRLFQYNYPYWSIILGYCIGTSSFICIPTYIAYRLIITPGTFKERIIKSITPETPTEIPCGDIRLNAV
T4 sequence (P23975 whole entry): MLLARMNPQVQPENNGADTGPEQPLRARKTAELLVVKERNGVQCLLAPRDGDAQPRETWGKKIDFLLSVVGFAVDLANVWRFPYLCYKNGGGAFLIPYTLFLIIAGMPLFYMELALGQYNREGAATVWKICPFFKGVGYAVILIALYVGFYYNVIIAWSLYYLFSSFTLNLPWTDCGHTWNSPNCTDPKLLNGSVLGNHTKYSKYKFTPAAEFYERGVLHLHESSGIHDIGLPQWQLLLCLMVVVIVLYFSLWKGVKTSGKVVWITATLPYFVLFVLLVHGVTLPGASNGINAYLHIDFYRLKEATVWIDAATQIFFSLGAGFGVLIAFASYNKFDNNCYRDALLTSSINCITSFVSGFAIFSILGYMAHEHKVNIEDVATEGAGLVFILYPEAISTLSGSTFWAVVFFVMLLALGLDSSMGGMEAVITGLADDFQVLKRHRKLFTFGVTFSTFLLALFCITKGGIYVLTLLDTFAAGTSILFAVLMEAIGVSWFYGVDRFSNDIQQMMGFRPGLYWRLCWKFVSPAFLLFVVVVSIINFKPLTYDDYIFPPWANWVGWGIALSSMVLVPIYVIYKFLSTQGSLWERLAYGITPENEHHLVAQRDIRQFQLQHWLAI

Compound: COC(=O)[C@H]1[C@@H](OC(=O)c2ccccc2)C[C@@H]2CC[C@H]1N2C [cocaine]
- labeling of W84C with MTSEA-biotin (DAT-XC/W84C mutant; coincubation with 100 µM cocaine (negative control)): not affected
- effect of Y335A mutation on potency (Y335A-DAT [1]): markedly impaired
- effect of Y156F mutation on binding affinities (Y156F-DAT [2]): unaffected

Compound: CC(Cc1ccccc1)[n+]1cc([N-]C(=O)Nc2ccccc2)on1 (stereo not shown) [sydnocarb]
- biotinylation of W84C by MTSEA-biotin (DAT-XC/W84C mutant; coincubation with 1 µM sydnocarb, four independent experiments): significantly decreased
- IC50 (hNET): 34900 ± 14100 nM
- IC50 (hSERT): 495000 ± 17000 nM
- IC50 (hSERT; listed as Sydnocarb): 495000 ± 17000 nM
- Vmax of DAT-mediated [3H]-DA uptake (wild-type DAT; in the presence of 0.5 µM Sydnocarb): 455.6 ± 89.6 femtomole/min/well
- Vmax of DAT-mediated [3H]-DA uptake (wild-type DAT; in the presence of 2.0 µM Sydnocarb): 195 ± 80.7 femtomole/min/well
- IC50 (hDAT; WT-DAT-transfected COS-7 cells, mutant comparison (Figure 6), three independent experiments, read-out: IC50, DA uptake inhibition): 439 ± 135 nM
- fold more potent towards hDAT than towards hNET (hDAT; from dose-response IC50 values): 70 fold
- fold more potent towards hDAT than towards hSERT (hDAT; from dose-response IC50 values): 1000 fold
- IC50 (hDAT; hDAT transiently transfected COS-7 cells, three independent experiments (Figure 1A), listed as Sydnocarb, read-out: IC50, transport inhibition): 493 ± 140 nM
- IC50 (hDAT; hDAT transiently transfected COS-7 cells, three independent experiments (Figure 1A), read-out: IC50, transport inhibition): 490 ± 140 nM
- reduction of potency for Y335A-DAT compared with WT-DAT (Y335A-DAT [3]; COS-7 cells): 3.5 fold
- IC50 (Y335A-DAT [3]; Y335A-DAT-transfected COS-7 cells, mean ± SEM, three independent experiments): 1420 ± 201 nM
- change in potency, Y156F-DAT versus WT-DAT (Y156F-DAT [4]; COS-7 cells): no significant changes
- IC50 (Y156F-DAT [4]; Y156F-DAT-transfected COS-7 cells, mean ± SEM, three independent experiments): 262 ± 118 nM

Compound: CCCCN1[C@@H]2CC[C@H]1CC(OC(c1ccc(F)cc1)c1ccc(F)cc1)C2 (stereo partly shown) [JHW-007]
- effect of Y156F mutation on potency (Y156F-DAT [2]): significantly reduced
